What was measured:
[1] = test system: human patients with atrial fibrillation; assay: Phase II clinical study: conversion of recent onset atrial fibrillation to normal sinus rhythm (NSR) by intravenous tedisamil; format: in vivo; conditions: ITT sample, DC cardioversion excluded
Description: (§1) This first clinical study in humans was a Multi-Center, Double-Blind, Randomized, Placebo-Controlled, Sequential Ascending Dose Groups Study to evaluate the Efficacy and Safety of Intravenous Tedisamil in the Rapid Conversion to Normal Sinus Rhythm in Patients with Atrial Fibrillation or Flutter. The active ingredient used was tedisamil dihydrochloride. The study was designed as a phase II study and executed in 35 to 40 centers in 3 to 4 countries. Study duration: Screening: up to 48 hours; treatment (in-patient): single 30-minute infusion; safety follow up: 24 hours (in-patient) with continuous telemetry and 28 day safety follow up.
(§2) Secondary efficacy objectives were to determine the percentage of human patients remaining in sinus rhythm at 2.5 hours after initiation of the intravenous infusion of tedisamil versus placebo; to determine the percentage of human patients remaining in sinus rhythm at 24 hours after initiation of the intravenous infusion of tedisamil versus placebo; to determine the time to conversion after the start of the infusion of tedisamil versus placebo; and to determine the dose- and plasma concentration-response relationships of tedisamil versus placebo. Safety objective: determining the safety and tolerability of tedisamil versus placebo.
(§3) The following methodology for the study in humans was applied: A multi-center, double-blind, randomized, placebo-controlled, sequential ascending dose groups study to evaluate the efficacy and safety of intravenous tedisamil versus placebo. The study drug was infused over 30 minutes, receiving half the dose within 10 minutes and half the dose within the remaining 20 minutes The first patient group received 0.4 mg/kg of body weight, infused as 0.2 mg/kg of body weight within 10 minutes, continued with 0.2 mg/kg of body weight infused within 20 minutes. The next higher dose 0.6 mg/kg of body weight (0.3 mg/kg of body weight infused over 10 min, continued with 0.3 mg/kg of body weight infused over 20 minutes) was only administered after the initial dose has been assessed (blinded) and found to be safe. A third stage may be added with a higher dose. Tedisamil blood concentrations were assessed during the infusion (at 10 and 30 minutes), at conversion to normal sinus rhythm, at recurrence and 24 hours after start of infusion.
(§4) The criteria for patient inclusion in the study was atrial fibrillation or flutter with a duration of more than 3 hours and less than 48 hours, occurring as a first or recurrent episode.
(§5) • Tedisamil (0.4 mg/kg body weight) • Tedisamil (0.6 mg/kg body weight) Both dosages were given as an intravenous regimen. Reference Therapy, Dose and Mode of Administration:
(§6) The total infusion time is 30 minutes, with half the dose infused within 10 minutes, and half the dose infused within the remaining 20 minutes.
(§7) Primary efficacy: the percentage of human patients converted to normal sinus rhythm (for at least 60 seconds) at any time within 2.5 hours after the initiation of the infusion of study drug.
(§8) All efficacy variables were evaluated separately for human patients with atrial fibrillation and human patients with atrial flutter. Percentages of conversion were compared among treatment groups using a logistic regression model with factors for treatment group and center. Times to conversion were compared among treatment groups using a Cox proportional hazards model with factors for treatment group and center. Dose-response and concentration-response relationships were examined using descriptive statistics.

[2] = test system: human patients with atrial flutter; assay: Phase II clinical study: conversion of atrial flutter to normal sinus rhythm (NSR) by intravenous tedisamil; format: in vivo; conditions: ITT sample, DC cardioversion excluded
Description: as §1, §2, §3, §4
• Tedisamil (0.4 mg/kg body weight) • Tedisamil (0.6 mg/kg body weight) Both dosages were given as an intravenous regimen. Reference Therapy, Dose and Mode of Administration: […]
All efficacy variables were evaluated separately for human patients with atrial fibrillation and human patients with atrial flutter. […]

[3] = test system: Patients with Atrial Fibrillation or Flutter; assay: Phase II clinical study: conversion to NSR, overall (atrial fibrillation or flutter); format: in vivo, human; conditions: for Conversion to NSR at any time within 2.5 hrs after start of infusion: Overall (fibrillation + flutter), ITT sample, DC cardioversion excluded
Description: as §1, §2, §3, §4, §5, §6, §7, §8

[4] = test system: human patients; assay: Clinical safety and tolerability of intravenous tedisamil (TdP, safety issues); format: in vivo
Description: as §2
Physical examination, ECG, 24-hour Holter monitoring, vital signs, laboratory evaluations and adverse events.

[5] = test system: Subjects with Recent Onset Atrial Fibrillation or Flutter; assay: Phase III clinical study: rapid conversion to NSR by intravenous tedisamil sesquifumarate; format: in vivo, human; conditions: active ingredient tedisamil sesquifumarate
Description: This second clinical study in humans was a Multi-Center, Double-Blind, Randomized, Placebo-Controlled, Parallel Design Study to evaluate the Efficacy and Safety of Intravenous Tedisamil Sesquifumarate in the Rapid Conversion to Normal Sinus Rhythm in Subjects with Recent Onset Atrial Fibrillation or Flutter.
The active ingredient used was tedisamil sesqifumarate. […] Study duration: Screening: up to 48 hours; treatment (in-patient): single 30-minute infusion; safety follow up: 24 hours (in-patient) with continuous telemetry and 28 day safety follow up. […]

[6] = female, 0.4 mg/kg i.v. 30-min infusion
[7] = female, 0.6 mg/kg i.v. 30-min infusion
[8] = male, 0.4 mg/kg i.v. 30-min infusion
[9] = male, 0.6 mg/kg i.v. 30-min infusion

C1CCC2(C1)C1CN(CC3CC3)CC2CN(CC2CC2)C1 [Tedisamil, N,N′-dicyclopropyl-methyl-9,9-tetramethylen-3,7-diazabicyclo[3,3,1]nonane]
Conversion to NSR at any time within 2.5 hrs after start of infusion [1, 6]: 6/17 (35.3%) | Conversion to NSR at any time within 2.5 hrs after start of infusion [1, 7]: 6/16 (37.5%) | Conversion to NSR at any time within 2.5 hrs after start of infusion ([1]; female, age <65 yrs, 0.4 mg/kg i.v.): 2/5 (40.0%) | Conversion to NSR at any time within 2.5 hrs after start of infusion ([1]; female, age <65 yrs, 0.6 mg/kg i.v.): 1/3 (33.3%) | Conversion to NSR at any time within 2.5 hrs after start of infusion ([1]; female, age >=65 yrs, 0.4 mg/kg i.v.): 4/12 (33.3%) | Conversion to NSR at any time within 2.5 hrs after start of infusion ([1]; female, age >=65 yrs, 0.6 mg/kg i.v.): 5/13 (38.5%) | Conversion to NSR at any time within 2.5 hrs after start of infusion [1, 8]: 18/35 (51.4%) | Conversion to NSR at any time within 2.5 hrs after start of infusion [1, 9]: 18/26 (69.2%) | Conversion to NSR at any time within 2.5 hrs after start of infusion ([1]; male, age <65 yrs, 0.4 mg/kg i.v.): 10/20 (50.0%) | Conversion to NSR at any time within 2.5 hrs after start of infusion ([1]; male, age <65 yrs, 0.6 mg/kg i.v.): 13/18 (72.2%) | Conversion to NSR at any time within 2.5 hrs after start of infusion ([1]; male, age >=65 yrs, 0.4 mg/kg i.v.): 8/15 (51.4%) | Conversion to NSR at any time within 2.5 hrs after start of infusion ([1]; male, age >=65 yrs, 0.6 mg/kg i.v.): 5/8 (62.5%) | Conversion to NSR at any time within 2.5 hrs after start of infusion (patients converted/total) ([2]; female, 0.4 mg/kg i.v. 30-min infusion, percentage not given): 0/2 | Conversion to NSR at any time within 2.5 hrs after start of infusion [2, 7]: 2/6 (33.3%) | Conversion to NSR at any time within 2.5 hrs after start of infusion [2, 8]: 1/7 (14.3%) | Conversion to NSR at any time within 2.5 hrs after start of infusion [2, 9]: 1/5 (20.0%) | Effect of extension of infusion on conversion rates ([3]; Extension of infusion beyond the times indicated (30 minutes)): did not produce higher conversion rates | Gender difference related to efficacy (conversion rate, male vs female patients) ([3]; First (Phase II) study, active ingredient tedisamil dihydrochloride): higher conversion rate compared to women | Conversion to NSR at any time within 2.5 hrs after start of infusion [3, 6]: 6/19 (31.6%) | Conversion to NSR at any time within 2.5 hrs after start of infusion [3, 7]: 8/22 (36.4%) | Conversion to NSR at any time within 2.5 hrs after start of infusion [3, 8]: 19/42 (45.2%) | Conversion to NSR at any time within 2.5 hrs after start of infusion [3, 9]: 19/31 (61.3%) | Observed TdP (Torsade de Point), distribution by gender ([4]; 30 min infusion regimen): Almost all observed TdP (Torsade de Point) in 30 min regimen were in female human patients | Safety issues, male vs female patients ([4]; First (Phase II) study): fewer safety issues than female human patients | TdP in male human patients ([4]; high dosage on 0.72 in 3114 study): Only one human patient showed TdP | Gender difference related to efficacy (conversion rate, male vs female patients) [5]: higher conversion rate compared to women

— patent publication US20050054667A1, “Method of treating or inhibiting anti-arrhythmic events in male human patients” (Solvay Pharmaceuticals GmbH, priority 2003, published 2005)
